Results as given in patent US20220119354A1, “DIAMINO-SUBSTITUTED PYRIDINES AND PYRIMIDINES AS HERBICIDES” (FMC Corporation, priority 2019, published 2022).

Tests used:
Format in all cases: in vivo
[1] = tested on: foxtail, giant (Setaria faberii); assay: Test A postemergence, giant foxtail; conditions: 0 to 100 scale, 0 no effect, 100 complete control
Outline: (§1)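 Plants grown in a loam soil and sand blend were treated either preemergence by directed soil spray or postemergence when 2 to 10 cm tall (one- to two-leaf stage). Formulation: non-phytotoxic solvent mixture with surfactant. Greenhouse hold ~10 d, then visual injury assessment on a 0–100 scale.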

[2] = tested on: ryegrass, Italian (Lolium multiflorum); assay: Test A postemergence, Italian ryegrass; conditions: 0 to 100 scale, 0 no effect, 100 complete control
Outline: as §1

[3] = tested on: ducksalad (Heteranthera limosa); assay: Test B flooded paddy test, ducksalad; conditions: Flood, 250 g ai/ha, applied to paddy water, 2-leaf stage, visual evaluation after 13 to 15 d
Outline: (§2)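 Pots flooded to 3 cm above the soil when treated, with test compound added straight to the water and the flood maintained. Treated plants were at the 2-leaf stage and stayed 13–15 d in greenhouse. Response versus untreated controls scored visually from 0 (no effect) to 100 (complete control).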

corn (Zea mays) = assay: Test A postemergence, corn; conditions: 0 to 100 scale, 0 no effect, 100 complete control
Outline: as §1

kochia (Kochia scoparia) [4] = assay: Test A postemergence, kochia; conditions: 0 to 100 scale, 0 no effect, 100 complete control
Outline: as §1

[5] = tested on: foxtail, giant (Setaria faberii); assay: Test A preemergence, giant foxtail; conditions: 0 to 100 scale, 0 is no effect, 100 is complete control
Outline: as §1

[6] = tested on: ragweed (common ragweed, Ambrosia elatior); assay: Test A postemergence, ragweed; conditions: 0 to 100 scale, 0 no effect, 100 complete control
Outline: as §1

[7] = tested on: ryegrass, Italian (Lolium multiflorum); assay: Test A preemergence, Italian ryegrass; conditions: 0 to 100 scale, 0 is no effect, 100 is complete control
Outline: as §1

[8] = tested on: barnyardgrass (Echinochloa crus-galli); assay: Test B flooded paddy test, barnyardgrass; conditions: Flood, 250 g ai/ha, applied to paddy water, 2-leaf stage, visual evaluation after 13 to 15 d
Outline: as §2

kochia (Kochia scoparia) [9] = assay: Test A preemergence, kochia; conditions: 0 to 100 scale, 0 is no effect, 100 is complete control
Outline: as §1

[10] = tested on: pigweed (Amaranthus retroflexus); assay: Test A preemergence, pigweed; conditions: 0 to 100 scale, 0 is no effect, 100 is complete control
Outline: as §1

rice (Oryza sativa) = assay: Test B flooded paddy test, rice; conditions: Flood, 250 g ai/ha, applied to paddy water, 2-leaf stage, visual evaluation after 13 to 15 d
Outline: as §2

[11] = tested on: barnyardgrass (Echinochloa crus-galli); assay: Test A postemergence, barnyardgrass; conditions: 0 to 100 scale, 0 no effect, 100 complete control
Outline: as §1

[12] = tested on: blackgrass (Alopecurus myosuroides); assay: Test A postemergence, blackgrass; conditions: 0 to 100 scale, 0 no effect, 100 complete control
Outline: as §1

[13] = tested on: wheat (Triticum aestivum); assay: Test A postemergence, wheat; conditions: 0 to 100 scale, 0 no effect, 100 complete control
Outline: as §1

[14] = tested on: galium (catchweed bedstraw, Galium aparine); assay: Test A postemergence, galium; conditions: 0 to 100 scale, 0 no effect, 100 complete control
Outline: as §1

[15] = tested on: sedge, umbrella (small-flower umbrella sedge, Cyperus difformis); assay: Test B flooded paddy test, umbrella sedge; conditions: Flood, 250 g ai/ha, applied to paddy water, 2-leaf stage, visual evaluation after 13 to 15 d
Outline: as §2

[16] = tested on: ragweed (common ragweed, Ambrosia elatior); assay: Test A preemergence, ragweed; conditions: 0 to 100 scale, 0 is no effect, 100 is complete control
Outline: as §1

[17] = tested on: barnyardgrass (Echinochloa crus-galli); assay: Test A preemergence, barnyardgrass; conditions: 0 to 100 scale, 0 is no effect, 100 is complete control
Outline: as §1

[18] = tested on: pigweed (Amaranthus retroflexus); assay: Test A postemergence, pigweed; conditions: 0 to 100 scale, 0 no effect, 100 complete control
Outline: as §1

Row | Structure (SMILES) | Plant response rating, Foxtail, Giant ([1]; 125 g ai/ha) | Plant response rating, Foxtail, Giant ([1]; 500 g ai/ha) | Plant response rating, Ryegrass, Italian ([2]; 125 g ai/ha) | Plant response rating, Ryegrass, Italian ([2]; 500 g ai/ha) | Plant response rating, Ducksalad (0 to 100 scale, 0 is no effect, 100 is complete control) [3] | Plant response rating, Corn (corn (Zea mays); 125 g ai/ha) | Plant response rating, Corn (corn (Zea mays); 500 g ai/ha) | Plant response rating, Kochia (kochia (Kochia scoparia) [4]; 125 g ai/ha) | Plant response rating, Kochia (kochia (Kochia scoparia) [4]; 500 g ai/ha) | Foxtail, Giant plant response rating ([5]; 125 g ai/ha) | Foxtail, Giant plant response rating ([5]; 500 g ai/ha) | Plant response rating, Ragweed ([6]; 125 g ai/ha) | Plant response rating, Ragweed ([6]; 500 g ai/ha) | Ryegrass, Italian plant response rating ([7]; 125 g ai/ha) | Ryegrass, Italian plant response rating ([7]; 500 g ai/ha) | Plant response rating, Barnyardgrass (0 to 100 scale, 0 is no effect, 100 is complete control) [8] | Kochia plant response rating (kochia (Kochia scoparia) [9]; 125 g ai/ha) | Kochia plant response rating (kochia (Kochia scoparia) [9]; 500 g ai/ha) | Pigweed plant response rating ([10]; 125 g ai/ha) | Pigweed plant response rating ([10]; 500 g ai/ha) | other results
1 | CC(Nc1ncc(C(F)(F)F)c(N)n1)c1cc2ccc(Cl)cc2s1 (racemic) [Compound 70] | 0 | 60 | 0 | 0 | 0 | 0 | 0 | 50 | 80 | 0 | 50 | 0 | 50 | 0 | 0 | 0 | 0 | 40 | 30 | 90 | Plant response rating, Rice (0 to 100 scale, 0 is no effect, 100 is complete control) (rice (Oryza sativa)): 0; Plant response rating, Barnyardgrass ([11]; 125 g ai/ha): 20; Plant response rating, Barnyardgrass ([11]; 500 g ai/ha): 70; Plant response rating, Blackgrass ([12]; 125 g ai/ha): 0; Plant response rating, Blackgrass ([12]; 500 g ai/ha): 30; Plant response rating, Wheat ([13]; 125 g ai/ha): 0; Plant response rating, Wheat ([13]; 500 g ai/ha): 0; Plant response rating, Galium ([14]; 125 g ai/ha): 0; Plant response rating, Galium ([14]; 500 g ai/ha): 80; Plant response rating, Sedge, Umbrella (0 to 100 scale, 0 is no effect, 100 is complete control) [15]: 0; Ragweed plant response rating ([16]; 125 g ai/ha): 20; Ragweed plant response rating ([16]; 500 g ai/ha): 90; Barnyardgrass plant response rating ([17]; 125 g ai/ha): 0; Barnyardgrass plant response rating ([17]; 500 g ai/ha): 30; Plant response rating, Pigweed ([18]; 125 g ai/ha): 100; Plant response rating, Pigweed ([18]; 500 g ai/ha): 100
2 | CC(Nc1ncc(C(F)(F)F)c(N)n1)c1coc2cc(Cl)ccc12 (racemic) [Compound 77] | 0 | 20 | 0 | 40 | 0 | 0 | 20 | 30 | 90 | 20 | 40 | 20 | 90 | 20 | 30 | 0 | 50 | 60 | 40 | 90 | Plant response rating, Rice (0 to 100 scale, 0 is no effect, 100 is complete control) (rice (Oryza sativa)): 0; Plant response rating, Barnyardgrass ([11]; 125 g ai/ha): 0; Plant response rating, Barnyardgrass ([11]; 500 g ai/ha): 0; Plant response rating, Blackgrass ([12]; 125 g ai/ha): 0; Plant response rating, Blackgrass ([12]; 500 g ai/ha): 0; Plant response rating, Wheat ([13]; 125 g ai/ha): 20; Plant response rating, Wheat ([13]; 500 g ai/ha): 30; Plant response rating, Galium ([14]; 125 g ai/ha): 50; Plant response rating, Galium ([14]; 500 g ai/ha): 80; Plant response rating, Sedge, Umbrella (0 to 100 scale, 0 is no effect, 100 is complete control) [15]: 0; Ragweed plant response rating ([16]; 125 g ai/ha): 80; Ragweed plant response rating ([16]; 500 g ai/ha): 90; Barnyardgrass plant response rating ([17]; 125 g ai/ha): 0; Barnyardgrass plant response rating ([17]; 500 g ai/ha): 0; Plant response rating, Pigweed ([18]; 125 g ai/ha): 70; Plant response rating, Pigweed ([18]; 500 g ai/ha): 100
3 | Nc1nc(NC(c2cc3ccccc3s2)C2CC2)ncc1C(F)(F)F (racemic) [Compound 94] | 60 | 90 | 50 | 90 | 40 | 0 | 20 | 70 | 90 | 70 | 100 | 50 | 70 | 50 | 90 | 35 | 60 | 90 | 60 | 100 | Plant response rating, Rice (0 to 100 scale, 0 is no effect, 100 is complete control) (rice (Oryza sativa)): 10; Plant response rating, Barnyardgrass ([11]; 125 g ai/ha): 40; Plant response rating, Barnyardgrass ([11]; 500 g ai/ha): 90; Plant response rating, Blackgrass ([12]; 125 g ai/ha): 0; Plant response rating, Blackgrass ([12]; 500 g ai/ha): 0; Plant response rating, Wheat ([13]; 125 g ai/ha): 0; Plant response rating, Wheat ([13]; 500 g ai/ha): 30; Plant response rating, Galium ([14]; 125 g ai/ha): 40; Plant response rating, Galium ([14]; 500 g ai/ha): 80; Plant response rating, Sedge, Umbrella (0 to 100 scale, 0 is no effect, 100 is complete control) [15]: 45; Ragweed plant response rating ([16]; 125 g ai/ha): 50; Ragweed plant response rating ([16]; 500 g ai/ha): 90; Barnyardgrass plant response rating ([17]; 125 g ai/ha): 0; Barnyardgrass plant response rating ([17]; 500 g ai/ha): 90; Plant response rating, Pigweed ([18]; 125 g ai/ha): 90; Plant response rating, Pigweed ([18]; 500 g ai/ha): 100
4 | Nc1nc(NC(c2coc3ccccc23)C2CC2)ncc1C(F)(F)F (racemic) [Compound 95] | 50 | 90 | 50 | 100 | 55 | 10 | 30 | 80 | 90 | 90 | 100 | 60 | 80 | 40 | 60 | 35 | 80 | 90 | 90 | 100 | Plant response rating, Rice (0 to 100 scale, 0 is no effect, 100 is complete control) (rice (Oryza sativa)): 0; Plant response rating, Barnyardgrass ([11]; 125 g ai/ha): 0; Plant response rating, Barnyardgrass ([11]; 500 g ai/ha): 70; Plant response rating, Blackgrass ([12]; 125 g ai/ha): 0; Plant response rating, Blackgrass ([12]; 500 g ai/ha): 70; Plant response rating, Wheat ([13]; 125 g ai/ha): 0; Plant response rating, Wheat ([13]; 500 g ai/ha): 30; Plant response rating, Galium ([14]; 125 g ai/ha): 80; Plant response rating, Galium ([14]; 500 g ai/ha): 80; Plant response rating, Sedge, Umbrella (0 to 100 scale, 0 is no effect, 100 is complete control) [15]: 70; Ragweed plant response rating ([16]; 125 g ai/ha): 50; Ragweed plant response rating ([16]; 500 g ai/ha): 100; Barnyardgrass plant response rating ([17]; 125 g ai/ha): 80; Barnyardgrass plant response rating ([17]; 500 g ai/ha): 100; Plant response rating, Pigweed ([18]; 125 g ai/ha): 100; Plant response rating, Pigweed ([18]; 500 g ai/ha): 100
5 | CC(Nc1ncc(C(F)(F)F)c(N)n1)c1coc2cccc(F)c12 (racemic) [Compound 96] | 0 | 60 | 0 | 0 | 0 | 40 | 60 | 20 | 90 | 20 | 80 | 20 | 80 | 0 | 50 | 0 | 0 | 0 | 70 | 90 | Plant response rating, Rice (0 to 100 scale, 0 is no effect, 100 is complete control) (rice (Oryza sativa)): 0; Plant response rating, Barnyardgrass ([11]; 125 g ai/ha): 30; Plant response rating, Barnyardgrass ([11]; 500 g ai/ha): 40; Plant response rating, Blackgrass ([12]; 125 g ai/ha): 0; Plant response rating, Blackgrass ([12]; 500 g ai/ha): 30; Plant response rating, Wheat ([13]; 125 g ai/ha): 0; Plant response rating, Wheat ([13]; 500 g ai/ha): 0; Plant response rating, Galium ([14]; 125 g ai/ha): 60; Plant response rating, Galium ([14]; 500 g ai/ha): 80; Plant response rating, Sedge, Umbrella (0 to 100 scale, 0 is no effect, 100 is complete control) [15]: 0; Ragweed plant response rating ([16]; 125 g ai/ha): 50; Ragweed plant response rating ([16]; 500 g ai/ha): 70; Barnyardgrass plant response rating ([17]; 125 g ai/ha): 0; Barnyardgrass plant response rating ([17]; 500 g ai/ha): 90; Plant response rating, Pigweed ([18]; 125 g ai/ha): 60; Plant response rating, Pigweed ([18]; 500 g ai/ha): 90
